Holding throughout (type): cell-based
The target in one experiment is T1, EP2 (Homo sapiens, UniProt P43116).
T1 construct: gene PTGER2
The experiment is described as follows: calcium flux antagonism of PGE2 in HEK293 cells stably expressing EP2 coupled through a promiscuous G protein.

The target of experiment [1] is T2, EP4 (Homo sapiens, UniProt P35408).
T2 construct: gene PTGER4
The experiment is described as follows: calcium flux antagonism of PGE2 in HEK293 cells stably expressing EP4 coupled through a promiscuous G protein.

Experiment [2] deals with T2, EP4. The experiment can be described thus: calcium flux assay in HEK293-based cells stably expressing human EP4.

T2 sequence (P35408 whole entry): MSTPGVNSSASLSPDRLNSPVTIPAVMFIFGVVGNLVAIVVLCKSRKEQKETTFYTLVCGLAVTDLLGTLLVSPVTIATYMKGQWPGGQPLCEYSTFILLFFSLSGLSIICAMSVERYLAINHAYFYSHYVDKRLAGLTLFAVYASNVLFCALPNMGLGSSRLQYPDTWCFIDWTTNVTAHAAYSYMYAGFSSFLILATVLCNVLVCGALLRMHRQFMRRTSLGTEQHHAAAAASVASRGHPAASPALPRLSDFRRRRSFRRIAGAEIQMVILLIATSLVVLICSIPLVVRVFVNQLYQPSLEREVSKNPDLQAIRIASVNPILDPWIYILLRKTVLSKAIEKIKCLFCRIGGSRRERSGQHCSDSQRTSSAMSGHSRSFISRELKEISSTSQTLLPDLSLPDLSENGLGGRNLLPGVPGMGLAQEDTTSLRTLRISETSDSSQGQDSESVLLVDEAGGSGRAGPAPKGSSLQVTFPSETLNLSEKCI
T1 sequence (P43116 whole entry): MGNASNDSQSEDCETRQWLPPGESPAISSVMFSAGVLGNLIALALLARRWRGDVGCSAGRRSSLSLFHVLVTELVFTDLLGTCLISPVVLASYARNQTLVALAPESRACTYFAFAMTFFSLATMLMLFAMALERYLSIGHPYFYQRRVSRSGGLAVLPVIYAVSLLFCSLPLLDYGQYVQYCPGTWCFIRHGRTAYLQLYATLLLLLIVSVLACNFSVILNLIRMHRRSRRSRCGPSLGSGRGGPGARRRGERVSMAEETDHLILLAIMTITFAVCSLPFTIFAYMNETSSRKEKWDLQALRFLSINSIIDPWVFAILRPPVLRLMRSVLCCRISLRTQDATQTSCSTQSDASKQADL

As for TPST-1495, the IC50 on EP2 came out at 17.2 nM; at EP4 [1], 3.24 nM.

For TPST-7131, the IC50 on EP4 [2] was 0.4 nM.

These data come from paper PMC10408683, “Dual Blockade of EP2 and EP4 Signaling is Required for Optimal Immune Activation and Antitumor Activity Against Prostaglandin-Expressing Tumors” (Cancer Research Communications, 2023).
